Measured values: US4220755A, “Fortimicin B derivatives and process for production thereof” (Abbott Laboratories, priority 1976, dated 1980)
Values after ≈ are worked out from the molar mass of the structure shown.

How the values were obtained:
[1] = tested on: Escherichia coli 76-2; test: MIC, agar dilution method, pH 7.2; type: cell-based; details: Escherichia coli, 762, pH 7.2, read-out: Minimum inhibition concentration (MIC)
Procedure: (§1) Measurement was carried out according to the agar dilution method, using a medium of pH 8.0, or the Japanese Antibiotic Medicament Standard, using a medium of pH 7.2 Units are in mcg/ml.
(§2) **1: gentamicin, producing adenylsynthetase.

[2] = tested on: Klebsiella pneumoniae 3020 Y-60; test: MIC, agar dilution method, pH 7.2; type: cell-based; details: Klebsiella pneumoniae, 3020Y60, pH 7.2, read-out: Minimum inhibition concentration (MIC)
Procedure: as §1, §2

[3] = tested on: Escherichia coli 57R/W677; test: MIC, agar dilution method, pH 7.2; type: cell-based; details: 57R/W677, pH 7.2, read-out: Minimum inhibition concentration (MIC)
Procedure: as §1, §2

[4] = tested on: Escherichia coli R12 Z-338; test: MIC, agar dilution method, pH 7.2; type: cell-based; details: R12Z338, pH 7.2, read-out: Minimum inhibition concentration (MIC)
Procedure: as §1, §2

[5] = tested on: Pseudomonas aeruginosa R4 KY8511; test: MIC, agar dilution method, pH 7.2; type: cell-based; details: R4KY8511, pH 7.2, read-out: Minimum inhibition concentration (MIC)
Procedure: as §1
(§3) 4: gentamicin, producing acetyltransferase type I.

[6] = tested on: Escherichia coli R19 KY8348; test: MIC, agar dilution method, pH 7.2; type: cell-based; details: R19KY8348, pH 7.2, read-out: Minimum inhibition concentration (MIC)
Procedure: as §1, §3

[7] = tested on: Proteus vulgaris JJ; test: MIC, agar dilution method, pH 7.2; type: cell-based; details: Proteus vulgaris, pH 7.2, read-out: Minimum inhibition concentration (MIC)
Procedure: as §1

[8] = tested on: Pseudomonas aeruginosa UCLA 4184; test: MIC, agar dilution method, pH 7.2; type: cell-based; details: Pseudomonas aeruginosa, UCLA4184, pH 7.2, read-out: Minimum inhibition concentration (MIC)
Procedure: as §1

[9] = tested on: Salmonella enteritidis G-14; test: MIC, agar dilution method, pH 7.2; type: cell-based; details: Salmonella enterica, ENTERITIDIS, pH 7.2, read-out: Minimum inhibition concentration (MIC)
Procedure: as §1

[10] = tested on: Staphylococcus aureus Smith (A); test: MIC, agar dilution method, pH 7.2; type: cell-based; details: Staphylococcus aureus, pH 7.2, read-out: Minimum inhibition concentration (MIC)
Procedure: as §1

[11] = tested on: Klebsiella pneumoniae KY4274; test: MIC, agar dilution method, pH 7.2; type: cell-based; details: Klebsiella pneumoniae, KY4274, pH 7.2, read-out: Minimum inhibition concentration (MIC)
Procedure: as §1

[12] = tested on: Shigella sonnei ATCC9290; test: MIC, agar dilution method, pH 7.2; type: cell-based; details: read-out: Minimum inhibition concentration (MIC)
Procedure: as §1

[13] = tested on: Eschericihia coli GN2411-5; test: MIC, agar dilution method, pH 7.2; type: cell-based; details: Escherichia coli, GN2411, pH 7.2, read-out: Minimum inhibition concentration (MIC)
Procedure: as §1

[14] = tested on: Staphylococcus aureus 209-P; test: MIC, agar dilution method, pH 7.2; type: cell-based; details: Staphylococcus aureus, 209P, pH 7.2, read-out: Minimum inhibition concentration (MIC)
Procedure: as §1

[15] = tested on: Escherichia coli NIHTC-2; test: MIC, agar dilution method, pH 7.2; type: cell-based; details: Escherichia coli, NIHTC2, pH 7.2, read-out: Minimum inhibition concentration (MIC)
Procedure: as §1

[16] = tested on: Pseudomonas aeruginosa BMH# 1; test: MIC, agar dilution method, pH 7.2; type: cell-based; details: Pseudomonas aeruginosa, pH 7.2, read-out: Minimum inhibition concentration (MIC)
Procedure: as §1

[17] = tested on: Eschericihia coli 3100; test: MIC, agar dilution method, pH 7.2; type: cell-based, Escherichia coli; details: Escherichia coli, 3100, pH 7.2, read-out: Minimum inhibition concentration (MIC)
Procedure: as §1

[18] = tested on: Bacillus subtilis KY4273; test: MIC, agar dilution method, pH 8.0; type: cell-based; details: pH 8.0; Bacillus subtilis KY4273; read-out: Minimum inhibition concentration (MIC), BS
Procedure: as §1
B.S.: Bacillus subtilis KY4273

[19] = tested on: Escherichia coli R18 KY8321; test: MIC, agar dilution method, pH 7.2; type: cell-based; details: R18KY8321, E. coli R18 KY8321, 2**: gentamicin, producing adenylsynthetase and neomycin phosphotransferase type II, read-out: Minimum inhibition concentration (MIC)
Procedure: as §1
2: gentamicin, producing adenylsynthetase and neomycin phosphotransferase

[20] = tested on: Staphylococcus a ureus 226; test: MIC, agar dilution method, pH 7.2; type: cell-based, Staphylococcus aureus; details: pH 7.2, read-out: Minimum inhibition concentration (MIC)
Procedure: as §1

[21] = tested on: Eschericia coli KY4271 ATCC26; test: MIC, agar dilution method, pH 8.0; type: cell-based; details: Escherichia coli, ATCC26; pH 8.0; E. coli KY4271; read-out: Minimum inhibition concentration (MIC), EC
Procedure: as §1
E.C.: Eschericia coli KY4271 ATCC26

[22] = tested on: Klebsiella pneumoniae KY4275 ATCC10031; test: MIC, agar dilution method, pH 8.0; type: cell-based; details: Klebsiella pneumoniae, ATCC10031, pH 8, read-out: Minimum inhibition concentration (MIC), KP
Procedure: as §1
K.P.: Klebsiella pneumoniae KY4275 ATCC10031.

[23] = tested on: Pseudomonas aeruginosa R9 KY8516; test: MIC, agar dilution method, pH 7.2; type: cell-based; details: R9KY8516, pH 7.2, read-out: Minimum inhibition concentration (MIC)
Procedure: as §1
(§4) 3: kanamycin, producing acetyltransferase.

[24] = tested on: Serratia marcescens 1065; test: MIC, agar dilution method, pH 7.2; type: cell-based; details: Serratia marcescens, 1065, pH 7.2, read-out: Minimum inhibition concentration (MIC)
Procedure: as §1, §4

[25] = tested on: Escherichia coli R17 Z343; test: MIC, agar dilution method, pH 7.2; type: cell-based; details: R17Z343, pH 7.2, read-out: Minimum inhibition concentration (MIC)
Procedure: as §1, §4

[26] = tested on: Escherichia coli R20 KY8349; test: MIC, agar dilution method, pH 7.2; type: cell-based; details: R20KY8349, pH 7.2, E. coli R20 KY8349, 5**: neomycin, producing phosphotransferase type I, read-out: Minimum inhibition concentration (MIC)
Procedure: as §1
5: neomycin, producing phosphotransferase type I.

[27] = tested on: Staphylococcus aureus KY4279 ATCC6538P; test: MIC, agar dilution method, pH 8.0; type: cell-based; details: pH 8.0, Staphylococcus aureus KY4279, read-out: Minimum inhibition concentration (MIC), SA
Procedure: as §1
S.A.: Staphylococcus aureus KY4279 ATCC6538P

[28] = tested on: Proteus vulgaris KY4277 ATCC6897; test: MIC, agar dilution method, pH 8.0; type: cell-based; details: ATCC6897; pH 8.0; Proteus vulgaris KY4277; read-out: Minimum inhibition concentration (MIC), PV
Procedure: as §1

[29] = tested on: Shigella sonnei KY4281 ATCC9290; test: MIC, agar dilution method, pH 8.0; type: cell-based; details: ATCC9290; pH 8.0; Shigella sonnei KY4281; read-out: Minimum inhibition concentration (MIC), SS
Procedure: as §1

Question: With `CO[C@H]1[C@@H](O)[C@H](N)[C@@H](O[C@H]2O[C@H]([C@H](C)N)CC[C@H]2N)[C@H](O)[C@@H]1N(C)C(=O)CN` [Compound 2, 4-N-glycylfortimicin B, reference compound] as the compound, how does the MIC [1] read?
Answer: 3.12 µg/mL (≈ 7.69 µM)

Question: And the MIC [2]?
Answer: 12.5 µg/mL (≈ 30.8 µM)

Question: What about the MIC [3] of the same compound?
Answer: 12.5 µg/mL (≈ 30.8 µM)

Question: And the MIC [4]?
Answer: 12.5 µg/mL (≈ 30.8 µM)

Question: What about the MIC [5] of the same compound?
Answer: > 100 µg/mL

Question: What about the MIC [6] of the same compound?
Answer: > 100 µg/mL

Question: What about the MIC [7] of the same compound?
Answer: 3.12 µg/mL (≈ 7.69 µM)

Question: And the MIC [8]?
Answer: 25 µg/mL (≈ 61.7 µM)

Question: What about the MIC [9] of the same compound?
Answer: 6.25 µg/mL (≈ 15.4 µM)

Question: And the MIC [10]?
Answer: 0.78 µg/mL (≈ 1.92 µM)

Question: What about the MIC [11] of the same compound?
Answer: 3.12 µg/mL (≈ 7.69 µM)

Question: And the MIC [12]?
Answer: 6.25 µg/mL (≈ 15.4 µM)

Question: And the MIC [13]?
Answer: 6.25 µg/mL (≈ 15.4 µM)

Question: And the MIC [14]?
Answer: 0.78 µg/mL (≈ 1.92 µM)

Question: And the MIC [15]?
Answer: 3.12 µg/mL (≈ 7.69 µM)

Question: And the MIC [16]?
Answer: 12.5 µg/mL (≈ 30.8 µM)

Question: What about the MIC [17] of the same compound?
Answer: 6.25 µg/mL (≈ 15.4 µM)

Question: What about the MIC [18] of the same compound?
Answer: 0.04 µg/mL (≈ 0.0986 µM)

Question: What about the MIC [19] of the same compound?
Answer: 3.12 µg/mL (≈ 7.69 µM)

Question: What about the MIC [20] of the same compound?
Answer: 0.78 µg/mL (≈ 1.92 µM)

Question: And the MIC [21]?
Answer: 0.16 µg/mL (≈ 0.395 µM)

Question: And the MIC [22]?
Answer: 0.16 µg/mL (≈ 0.395 µM)

Question: What about the MIC [23] of the same compound?
Answer: 50 µg/mL (≈ 123 µM)

Question: What about the MIC [24] of the same compound?
Answer: 6.25 µg/mL (≈ 15.4 µM)

Question: What about the MIC [25] of the same compound?
Answer: 1.56 µg/mL (≈ 3.85 µM)

Question: And the MIC [26]?
Answer: 3.12 µg/mL (≈ 7.69 µM)

Question: What about the MIC [27] of the same compound?
Answer: 0.04 µg/mL (≈ 0.0986 µM)

Question: And the MIC [28]?
Answer: 0.32 µg/mL (≈ 0.789 µM)

Question: And the MIC [29]?
Answer: 0.63 µg/mL (≈ 1.55 µM)
